Compound in this assay: C=C1C[C@H]2C=Nc3cc(OCCCCCOc4cc5c(cc4OC)C(=O)N4CC(=C)C[C@H]4C=N5)c(OC)cc3C(=O)N2C1 [SG2057]
Briefly: absolute IC50 (cell viability, CellTiter-Glo); higher = less potent. The settings on record: treatment time: 3 days. As for the experimental part:
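Large cancer cell line panel screens in 384-well plates. Cells were treated for 3 days with a 9-point dose titration of the free PBD dimer SG2057; viability was read with CellTiter-Glo. Absolute IC50 came from a four-parameter Hill fit normalised to the median of vehicle (DMSO) wells. Several independent screens (projects) per cell line are averaged; values in µM, lowest-dose floor about 1.524e-5 µM.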
(In general: ATP-based viability assays read luminescence as a measure of living cells.)

± gives the standard deviation of the averaged measurements.

One may read the absolute IC50 as the concentration at which the response is half of the control response. In the case of Li-7, the “absolute IC50” value came out at 4.51 nM.

For the test system SISO, the “absolute IC50” value came out at 0.153 nM.

Turning to TK-10, the “absolute IC50” value was 2.7 ± 2.1 nM.

Take JHH-6: the “absolute IC50” value was determined as 3.4 nM.

On to HSC-5, for which the “absolute IC50” value was determined as 0.621 nM.

HCC60 (NCI-H23): the “absolute IC50” value came out at 0.268 nM.

In the case of 143B, the “absolute IC50” value was 0.191 nM.

With HCC364, the “absolute IC50” value was determined as 2.86 ± 4.4 nM.

For the test system HCC3335, the “absolute IC50” value was found to be 1.59 nM.

For the test system G140, the “absolute IC50” value turned out to be 1.28 ± 1.7 nM.

For QGP-1, the “absolute IC50” value turned out to be 5.47 ± 0.39 nM.

As for UM-UC-1, the “absolute IC50” value is 0.557 nM.

On to BT-474, for which the “absolute IC50” value stood at 4.09 ± 3.7 nM.

As to OE19, the “absolute IC50” value is 2.23 nM.

Regarding BHY, the “absolute IC50” value is 0.183 nM.

On to Caki-1, for which the “absolute IC50” value turned out to be 0.052 nM.

NCI-H1869: the “absolute IC50” value is 2.35 nM.

For KR7110, the “absolute IC50” value is 1.36 nM.

As for PA-1, the “absolute IC50” value was 0.0473 ± 0.056 nM.

For KR7251, the “absolute IC50” value was found to be 0.557 nM.

With SNU-16, the “absolute IC50” value was 0.344 ± 0.1 nM.

On to VP229, for which the “absolute IC50” value came to 3 ± 3.4 nM.

Regarding DMS 273, the “absolute IC50” value turned out to be 1.38 nM.

As to KM-12, the “absolute IC50” value was determined as 3.65 nM.

Turning to OV-90, the “absolute IC50” value stood at 2.13 ± 1.3 nM.

In the case of Kasumi-1, the “absolute IC50” value was 4.11 nM.

In the case of T.T, the “absolute IC50” value turned out to be 1.93 nM.

These data come from the supplement of paper PMC10784567.
